Laboratory results: patent US20040224014A1, “Non-hygroscopic pharmaceutical compositions containing non-hydrated quinoline carboxylic acids” (The Jordanian pharmaceutical manufacturing Co., priority 2003, published 2004)

Assay: Water uptake of norfloxacin and its formulations (FIG. 1)
Format: physicochemical
Conditions: depending on manufacturing procedure (wet or dry granulation) and storage temperature and humidity
From the text: The water uptake for norfloxacin and its formulations may reach up to 30% and more depending on the manufacturing procedures (wet or dry granulation), and storage conditions of temperature and humidity (see FIG. 1).

CCn1cc(C(=O)O)c(=O)c2cc(F)c(N3CCNCC3)cc21 [norfloxacin]
water uptake: ~30%
